Test results as given in patent publication US20240294478A1, “ANTI-CANCER COMPOUNDS AND METHODS OF USE” (YALE UNIVERSITY, priority 2021, published 2024).

Assays:
[1] = system: LN229 MGMT−/MMR+ and MGMT−/MMR− flank tumors; assay: Flank tumor second study: regimens, schedules, routes; assay type: in vivo, mouse; conditions: 5, 15, 25 mg/kg; MWF x 3 weeks or M-F x 1 week; PO or IP
Text: (§1) FIGS. 9A-91: KL-50 is safe and efficacious on both MGMT−/MMR+ and MGMT−/MMR-flank tumors over a wide range of treatment regimens and conditions. […] (FIG. 9C) Mean body weight of mice during LN229 flank tumor experiments. (FIG. 9D) Kaplan-Meier analysis of LN229 MGMT−/MMR− xenograft flank tumor-bearing mice to determine survival rate based on death, removal from study if mouse body weight loss exceeded 20% of initial body weight, or if tumor volume exceeded 2000 mm^3. […] (FIGS. 9H-91) Xenograft LN229 MGMT−/MMR+ and LN229 MGMT−/MSH6—flank tumors with a larger average starting tumor size of −400 mm^3 and −350 mm^3 respectively, treated with 3 weekly cycles of P.O administration of 10% cyclodextrin (n=4) or KL-50 (n=4, 3 cycles of 25 mg/kg on Monday, Wednesday, and Friday). The study period was limited by control groups which had to be euthanized for exceeding the ethical maximum allowed tumor size, thus ending the study. In all panels, points, mean; error bars, SEM; *, P<0.05; **, P<0.01; ***, P<0.001; ****, P<0.0001; ns, not significant.
In a second study, mice were randomized and administered either KL-50 or vehicle (10% cyclodextrin) by oral gavage or intraperitoneal injection on either M-F x 1 or MWF×3 cycles at 5, 15, or 25 mgs/kg. Caliper measurements were obtained during the dosing period and at least two weeks following treatment. […]

[2] = system: large MGMT−/MMR+ and MGMT−/MSH6− LN229 flank tumors; assay: Flank tumor third study: large tumors; assay type: in vivo, mouse; conditions: 25 mg/kg PO MWF x 3 weeks
Text: as §1
The third study involved MGMT−/MMR+ and MGMT−/MSH6—(shMSH6) LN229 cells. Mice tumors were allowed to grow to a larger average starting volume of −350 mm^3 before they were randomized and administered either KL-50 (25 mg/kg MWF×3 weeks) or vehicle (10% cyclodextrin) by oral gavage. […]

[3] = Maximum tolerated dose study in healthy mice; assay type: in vivo
Text: FIGS. 10A-10G. KL-50 is efficacious in an LN229 MGMT−/MMR− intracranial model and is well tolerated with limited myelosuppression at supratherapeutic doses. […] (FIG. 10B) Mean body change with SEM of mice during maximum tolerated dose experiment in non-tumor bearing mice. (FIGS. 10C-10G) Complete blood counts for mice pre-treatment and 7 days post-treatment with escalations of single dose KL-50 delivered PO. WBC lower limit of normal (LLN): 2.2 K/L; Neutrophils LLN: 0.42 K/L; Lymphocyte LLN: 1.7 K/L; RBC LLN: 3.47 M/L; Platelet LLN: 155 K/L. *, P<0.05; ****, P<0.0001.
Healthy mice were treated with escalating doses of KL-50 (0, 25, 50, 100, and 200 mg/kg x 1 dose), and monitored over time for changes in both weights and hematologic profiles. […]. […]

[4] = system: DLD1 BRCA2+/− and BRCA2−/− cells; assay: Short-term viability assay, DLD1 BRCA2 isogenic model +/- O6BG; assay type: cell-based, human
Method: FIGS. 8A-8K. (FIG. 8A) Change in percent cells with 1 micronuclei from baseline (DMSO control) after treatment as in FIGS. 5A and 5C. […] (FIG. 8B) Short-term viability assay curves for KL-50 in PD20 cells, deficient in FANCD2 (FANCD2−/−) or complemented with FANCD2 (+FANCD2). (FIG. 8C) Short-term viability assay curves for KL-50 in PEO4 (BRCA2+) and PEO1 (BRCA2−/−) cells pre-treated with 0.01% DMSO control or 10 μM O^6BG (+O^6BG) for 1 h prior to KL-50 addition. (FIG. 8D) Short-term viability assay curves for KL-50 in DLD1 BRCA2+/− and BRCA2−/−cells pre-treated with 0.01% DMSO control or 10 μM O^6BG (+O^6BG) for 1 h prior to KL-50 addition. For FIGS. 8B-8D, points, mean; error bars, SD; n=3 technical replicates. […] Change in percent cells with 1 micronuclei from baseline (DMSO control) after treatment with olaparib (10 μM) for 48 h in LN229 MGMT+/−, MMR+/−cells. […] Western blot analysis of FANCD2 ubiquitination in LN229 MGMT+/−, MMR+/−cells and PD20 FANCD2-deficient cells, complemented with empty vector (FANCD2+EV), wildtype FANCD2 (PD20+FD2) or ubiquitination-mutant FANCD2 (PD20+KR). The % FANCD2 ubiquitination (% FANCD2 Ub) is quantified as the background-corrected integrated band intensity of the upper band divided by the sum of the background-corrected integrated band intensities of the upper and lower bands. The fold change in % FANCD2 ubiquitination is presented for each cell line relative to DMSO-treated cells. Vinculin serves as loading control. For 8J-8K, points, mean; error bars, SD; n=3 technical replicates.
Short-term Cell Viability Assay. Cells were seeded in 96-well plates at 1000 or 2000 cells/well and allowed to adhere at 23° C. for 60 min and then incubated overnight at 37° C. […] Cells were imaged on a Cytation 3 imaging reader (BioTek) and quantified using CellProfiler software. For in vitro short-term growth delay experiments, IC50 values were determined from the nonlinear regression equation, [inhibitor] vs normalized response with variable slope.

NC(=O)c1ncn2c(=O)n(CCF)nnc12 [KL-50]
efficacy and toxicity across regimens [1]: effective and non-toxic | growth of large (350-400 mm^3) tumors [2]: potently suppressed the growth | mice observably ill warranting euthanasia ([3]; 200 mg/kg x 1 dose): Two of three mice | toxicity in remaining cohorts ([3]; 25, 50, 100 mg/kg x 1 dose): no evidence of toxicity | complete blood counts day 7 ([3]; all cohorts, 0-200 mg/kg single dose PO): within normal physiological ranges | tolerability, overall ([3]; escalating single doses): well-tolerated | weight loss after treatment administration ([3]; single dose 100 or 200 mg/kg, regressed to baseline at the end of one week): greater than 10% | therapeutic index (TI), ratio of IC50 values in MGMT+/BRCA2+ cells compared to MGMT−/BRCA2− cells ([4]; DLD1 isogenic model): ~600 fold | effect of BRCA2 loss on toxicity ([4]; two MGMT-proficient cell models, following MGMT depletion via O6BG): BRCA2 loss enhanced the toxicity
